Data set [1] can be described thus: Analysis of luciferase mRNA lipid particle composition (Production Example 1). Type of data set: physicochemical. The conditions noted are these: for Particle size: lipid particle cationic lipid:DPPC:cholesterol:GM-020=60:10.6:28:1.4 with luciferase mRNA, Zetasizer Nano ZS; for Encapsulation ratio / mRNA Concentration: lipid particle composition with luciferase mRNA, RiboGreen. The text has this:
(§1) The particle size of the lipid particle (in the composition) can be measured by using a known means. For example, a Zetasizer Nano ZS (Malvern Instruments Limited), a particle size analyzer based on an NIBS (non-invasive backscatter) technique, can be used to calculate the particle size as a z-average particle size through cumulant analysis of the autocorrelation function. The particle size (average particle size) of the lipid particle (in the composition) is preferably 10 to 200 nm.
(§2) The concentration and encapsulation ratio of a nucleic acid (e.g., an siRNA, an mRNA) as an active ingredient in the composition of the present invention can be measured by using a known means. For example, after the nucleic acid is fluorescence-labeled with Quant-iT™ RiboGreen® (Invitrogen), the concentration and the encapsulation ratio can be determined by measuring the fluorescence intensity. The concentration of the nucleic acid in the composition can be calculated by using a standard curve prepared from aqueous solutions of the nucleic acid with known concentrations, and the encapsulation ratio can be calculated on the basis of difference in fluorescence intensity depending on the presence or absence of addition of Triton-X100 (a surfactant to disintegrate the lipid particle). The concentration of the nucleic acid in the composition refers to the total concentration of molecules of the nucleic acid encapsulated in the lipid particle and molecules of the nucleic acid not encapsulated in the lipid particle, and the encapsulation ratio refers to the fraction of molecules of the nucleic acid encapsulated in the lipid particle to all the molecules of the nucleic acid in the composition.
(§3) A lipid mixture (cationic lipid produced in Examples:DPPC:cholesterol:GM-020=60:10.6:28:1.4, in mole ratio) was dissolved in 90% EtOH/10% RNase-free water to afford a 8.5 mg/mL lipid solution. Luciferase mRNA (TriLink Bio Technologies) was dissolved in 10 mM 2-morpholinoethanesulfonate (MES) buffer at pH 4.0 to afford a 0.22 mg/mL nucleic acid solution. The lipid solution and nucleic acid solution obtained were mixed by using the apparatus NanoAssemblr (Precision Nanosystems) at room temperature with a flow rate ratio of 3 mL/min:6 mL/min to afford a dispersion containing a lipid particle encapsulating the nucleic acid. By using a Slyde-A-Lyzer (molecular weight cutoff: 20k, Thermo Fisher Scientific), the dispersion obtained was dialyzed with water at room temperature for 1 hour and with PBS at 4° C. for 48 hours. Subsequently, filtration was performed with a 0.2 µm syringe filter (IWAKI CO., LTD.) to prepare a composition for nucleic acid introduction, and thereafter the composition was stored at 4° C. The particle size of the lipid particle was measured by using a Zetasizer Nano ZS (Malvern Instruments Limited). The mRNA concentration and encapsulation ratio of the lipid particle were measured by using a Quant-iT™ RiboGreen® (Invitrogen).

The test system of a further data set is HCT116 cells. As to the kind of experiment: Test of mRNA transfection into cultured cells (luciferase expression). The class given is cell-based, human. The conditions noted are these: HCT116, 10 ng luciferase mRNA per well, 24 hours after addition. As to the method:
as §3
The human colorectal cancer-derived cell line HCT116 cells were cultured in a 96-well plate at a cell density of 6000 cells/well, and 24 hours thereafter 10 μL of the composition containing 10 ng of luciferase mRNA for nucleic acid introduction (a solution obtained by diluting the product of Production Example 1 to an mRNA concentration of 10 ng/10 μL) was added to the medium. The level of luciferase expressed in HCT116 24 hours after the addition of mRNA was measured by using a Picagene LT2.0 kit (TOYOBO CO., LTD.).

Data set [2] in a line: Analysis of Col1a1/FVII siRNA lipid particle composition (Production Example 2). As to conditions: for Particle size: lipid particle cationic lipid:DPPC:cholesterol:GM-020=60:10.6:28:1.4 with Col1a1 and FVII siRNA, Zetasizer Nano ZS; for Encapsulation ratio / siRNA Concentration: lipid particle composition with Col1a1 and FVII siRNA, RiboGreen. The class given is physicochemical.
From the text: as §1, §2
A lipid mixture (cationic lipid produced in Examples:DPPC:cholesterol:GM-020=60:10.6:28:1.4, in mole ratio) was dissolved in 90% EtOH/10% RNase-free water to afford an approximately 7 mg/mL lipid solution. Equal amounts of an siRNA for Col1a1 and an siRNA for Factor VII (FVII) were mixed together, and the mixture was dissolved in 25 mM acetate buffer at pH 4.0 to afford a 0.2 mg/mL nucleic acid solution. Sequence information on the siRNAs are shown in a table below. The lipid solution and nucleic acid solution obtained were mixed by using the apparatus NanoAssemblr (Precision Nanosystems) at room temperature with a flow rate ratio of 3 mL/min:9 mL/min to afford a dispersion containing a lipid particle including the nucleic acids. By using a Slyde-A-Lyzer (molecular weight cutoff: 20k, Thermo Fisher Scientific), the dispersion obtained was dialyzed with water at room temperature for 1 hour and with PBS at 4° C. for 48 hours. Subsequently, filtration was performed with a 0.2 µm syringe filter (IWAKI CO., LTD.) to prepare a composition for nucleic acid introduction, and thereafter the composition was stored at 4° C. The particle size of the lipid particle was measured by using a Zetasizer Nano ZS (Malvern Instruments Limited). The mRNA concentration and encapsulation ratio of the lipid particle were measured by using a Quant-iT™ RiboGreen® (Invitrogen).

The record followed here is patent US11993570B2, “Cationic lipids” (TAKEDA PHARMACEUTICAL COMPANY LIMITED, priority 2017, dated 2024).

`CCCC/C=C\CCCCCCCC(=O)OCC(COC(=O)CCCCCCC)(COC(=O)CCCCCCC/C=C\CCCC)COC(=O)CCN(C)C` [Example 8, 2-(((N,N-dimethyl-β-alanyl)oxy]methyl}-2-[(octanoyloxy)methyl)propane-1,3-diyl (9Z,9′Z)bis-tetradec-9-enoate]: in data set [1], the Particle size was 67 nm, the Encapsulation ratio is given as 94% and the “mRNA Concentration” value was 84 µg/mL. Besides, in the data set on HCT116 cells (Table 3 (PBS control 560)), the “Mean value of luminescence for 3 wells” value amounted to 3853 cps.
With `CCCC/C=C\CCCCCCCC(=O)OCC(COC(=O)CCCCCCC/C=C\CCCC)(COC(=O)CCCCCCCCC)COC(=O)CCCN(C)C` [Example 10, 2-((decanoyloxy)methyl)-2-(((4-(dimethylamino)butanoyl)oxy)methyl)propane-1,3-diyl (9Z,9′Z)bis-tetradec-9-enoate], in data set [1], the Particle size worked out at 92 nm, the Encapsulation ratio was 84% and the “mRNA Concentration” value turned out to be 86 µg/mL. For the same compound, the “Mean value of luminescence for 3 wells” value in the data set on HCT116 cells (Table 3 (PBS control 560)) is 1203467 cps. Further, in data set [2], the Particle size is reported as 88 nm, the Encapsulation ratio was 90% and the “siRNA Concentration” value was found to be 307 µg/mL.
As for `CCCC/C=C\CCCCCCCC(=O)OCC(COC(=O)CCCCCCC/C=C\CCCC)(COC(=O)CCCCCCC/C=C\CCCC)COC(=O)CCCN(C)C` [Example 1, 3-((4-(Dimethylamino)butanoyl)oxy)-2,2-bis(((9Z)-tetradec-9-enoyloxy)methyl)propyl (9Z)-tetradec-9-enoate], in data set [1], the Particle size amounted to 71 nm, the Encapsulation ratio is listed as 96% and the “mRNA Concentration” value amounted to 136 µg/mL. The “Mean value of luminescence for 3 wells” value in the data set with HCT116 cells (Table 3 (PBS control 560)) stood at 227720 cps.
For `CCCC/C=C\CCCCCCCC(=O)OCC(COC(=O)CCCCCCC/C=C\CCCC)(COC(=O)CCCCCCCCCCC)COC(=O)CCCN(C)C` [Example 11, 2-(((4-(Dimethylamino)butanoyl)oxy)methyl)-2-((dodecanoyloxy)methyl)propane-1,3-diyl (9Z,9′Z)bis-tetradec-9-enoate], in data set [1], the Particle size was 83 nm, the Encapsulation ratio was determined as 92% and the “mRNA Concentration” value was 85 µg/mL. Besides, the “Mean value of luminescence for 3 wells” value in the data set on HCT116 cells (Table 3 (PBS control 560)) stood at 953520 cps. In data set [2], the Particle size came out at 85 nm, the Encapsulation ratio was 91% and the “siRNA Concentration” value turned out to be 402 µg/mL.
As to `CCCC/C=C\CCCCCCCC(=O)OCC(COC(=O)CCCCCCC/C=C\C/C=C\CCCCC)(COC(=O)CCCCCCC/C=C\CCCC)COC(=O)CCCCN(C)C` [Example 7, 3-((5-(dimethylamino)pentanoyl)oxy)-2,2-bis(((9Z)-tetradec-9-enoyloxy)methyl)propyl (9Z,12Z)-octadec-9,12-dienoate], in data set [2], the Particle size came to 102 nm, the Encapsulation ratio was 96% and the “siRNA Concentration” value is 320 µg/mL.
Take `CCCC/C=C\CCCCCCCC(=O)OCC(COC(=O)CCCCCCC/C=C\CCCC)(COC(=O)CCCCCCC/C=C\CCCCCCCC)COC(=O)CCCCN(C)C` [Example 6, 3-((5-(dimethylamino)pentanoyl)oxy)-2,2-bis(((9Z)-tetradec-9-enoyloxy)methyl)propyl (9Z)-octadec-9-enoate]: in data set [2], the Particle size is recorded as 87 nm, the Encapsulation ratio turned out to be 98% and the “siRNA Concentration” value came out at 333 µg/mL.
Consider `CCCC/C=C\CCCCCCCC(=O)OCC(COC(=O)CCCCCCC/C=C\CCCC)(COC(=O)CCCCCCC/C=C\CCCCCC)COC(=O)CCCCN(C)C` [Example 5, 3-((5-(dimethylamino)pentanoyl)oxy)-2,2-bis(((9Z)-tetradec-9-enoyloxy)methyl)propyl (9Z)-hexadec-9-enoate], for which, in data set [1], the Particle size worked out at 91 nm, the Encapsulation ratio is recorded as 98% and the “mRNA Concentration” value is 96 µg/mL. Moreover, the “Mean value of luminescence for 3 wells” value in the data set on HCT116 cells (Table 3 (PBS control 560)) was 545507 cps. Also, in data set [2], the Particle size came to 103 nm, the Encapsulation ratio was determined as 94% and the “siRNA Concentration” value was 367 µg/mL.
`CCCC/C=C\CCCCCCCC(=O)OCC(COC(=O)CCCCCCC)(COC(=O)CCCCCCC/C=C\CCCC)COC(=O)CCCN(C)C` [Example 9, 2-(((4-(dimethylamino)butanoyl)oxy)methyl)-2-((octanoyloxy)methyl)propane-1,3-diyl (9Z,9′Z)bis-tetradec-9-enoate]: in data set [1], the Particle size was found to be 108 nm, the Encapsulation ratio is listed as 62% and the “mRNA Concentration” value turned out to be 129 µg/mL. The “Mean value of luminescence for 3 wells” value in the data set with HCT116 cells (Table 4 (PBS control 627)) worked out at 549893 cps.
`CCCC/C=C\CCCCCCCC(=O)OCC(COC(=O)CCCCCCC/C=C\CCCC)(COC(=O)CCCCCCC/C=C\CCCCCC)COC(=O)CCCN(C)C` [Example 4, 3-((4-(Dimethylamino)butanoyl)oxy)-2,2-bis(((9Z)-tetradec-9-enoyloxy)methyl)propyl (9Z)-hexadec-9-enoate]: in data set [1], the Particle size stood at 76 nm, the Encapsulation ratio came to 97% and the “mRNA Concentration” value turned out to be 113 µg/mL. Besides, the “Mean value of luminescence for 3 wells” value in the data set on HCT116 cells (Table 3 (PBS control 560)) is reported as 407547 cps. Also, in data set [2], the Particle size worked out at 90 nm, the Encapsulation ratio is 89% and the “siRNA Concentration” value was 355 µg/mL.
As to `CCCC/C=C\CCCCCCCC(=O)OCC(COC(=O)CCCCCCC/C=C\CCCC)(COC(=O)CCCCCCC/C=C\CCCC)COC(=O)CCCCCN(C)C` [Example 3, 3-((6-(dimethylamino)hexanoyl)oxy)-2,2-bis(((9Z)-tetradec-9-enoyloxy)methyl)propyl (9Z)-tetradec-9-enoate], in data set [1], the Particle size came out at 93 nm, the Encapsulation ratio turned out to be 96% and the “mRNA Concentration” value was 87 µg/mL. Moreover, in the data set on HCT116 cells (Table 3 (PBS control 560)), the “Mean value of luminescence for 3 wells” value is listed as 412187 cps. In data set [2], the Particle size is reported as 117 nm, the Encapsulation ratio is 95% and the “siRNA Concentration” value worked out at 196 µg/mL.
Regarding `CCCC/C=C\CCCCCCCC(=O)OCC(COC(=O)CCCCCCC/C=C\CCCC)(COC(=O)CCCCCCC/C=C\CCCC)COC(=O)CCCCN(C)C` [Example 2, 3-((5-(dimethylamino)pentanoyl)oxy)-2,2-bis(((9Z)-tetradec-9-enoyloxy)methyl)propyl (9Z)-tetradec-9-enoate], in data set [1], the Particle size worked out at 90 nm, the Encapsulation ratio is given as 96% and the “mRNA Concentration” value worked out at 73 µg/mL. Also, the “Mean value of luminescence for 3 wells” value in the data set with HCT116 cells (Table 3 (PBS control 560)) was determined as 570027 cps. Further, in data set [2], the Particle size is 104 nm, the Encapsulation ratio was 98% and the “siRNA Concentration” value is 251 µg/mL.
